Results taken from PubChem BioAssay (NCI).
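A five-concentration, 48-hour dose response in 96-well plates underlies each endpoint, interpolated linearly between surrounding concentrations. At the TGI there is no net growth.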

Legend:
Test in all cases: NCI tumour cell line growth inhibition, 48 h
SK-MEL-2 melanoma = system: SK-MEL-2 melanoma
MCF7 breast = system: MCF7 breast
LOX IMVI melanoma = system: LOX IMVI melanoma
SNB-19 CNS = system: SNB-19 CNS
NCI-H460 lung = system: NCI-H460 lung
KM12 colon = system: KM12 colon
T-47D breast = system: T-47D breast
CCRF-CEM leukemia = system: CCRF-CEM leukemia
HCC-2998 colon = system: HCC-2998 colon
NCI-H226 lung = system: NCI-H226 lung
SF-539 CNS = system: SF-539 CNS
DU-145 prostate = system: DU-145 prostate
U251 CNS = system: U251 CNS
A549 NSCLC = system: A549 NSCLC
NCI-H522 lung = system: NCI-H522 lung
M14 melanoma = system: M14 melanoma
SR leukemia = system: SR leukemia
OVCAR-8 ovarian = system: OVCAR-8 ovarian
UACC-257 melanoma = system: UACC-257 melanoma
HOP-62 NSCLC = system: HOP-62 NSCLC
PC-3 prostate = system: PC-3 prostate
TK-10 renal = system: TK-10 renal
CAKI-1 renal = system: CAKI-1 renal
HT29 colon = system: HT29 colon
MOLT-4 leukemia = system: MOLT-4 leukemia
SK-OV-3 ovarian = system: SK-OV-3 ovarian
IGROV1 ovarian = system: IGROV1 ovarian
UACC-62 melanoma = system: UACC-62 melanoma
HS 578T breast = system: HS 578T breast
COLO 205 colon = system: COLO 205 colon
MDA-MB-231 breast = system: MDA-MB-231 breast
BT-549 breast = system: BT-549 breast
OVCAR-5 ovarian = system: OVCAR-5 ovarian
ACHN renal = system: ACHN renal
SF-268 CNS = system: SF-268 CNS
MDA-N = system: MDA-N
SK-MEL-5 melanoma = system: SK-MEL-5 melanoma
MALME-3M melanoma = system: MALME-3M melanoma
786-0 renal = system: 786-0 renal
RXF 393 renal = system: RXF 393 renal
OVCAR-3 ovarian = system: OVCAR-3 ovarian
EKVX NSCLC = system: EKVX NSCLC
RPMI-8226 leukemia = system: RPMI-8226 leukemia
SN12C renal = system: SN12C renal
SK-MEL-28 melanoma = system: SK-MEL-28 melanoma
K-562 leukemia = system: K-562 leukemia
NCI/ADR-RES ovarian = system: NCI/ADR-RES ovarian
UO-31 renal = system: UO-31 renal
MDA-MB-435 = system: MDA-MB-435
SF-295 CNS = system: SF-295 CNS
NCI-H23 lung = system: NCI-H23 lung
HCT-15 colon = system: HCT-15 colon
SNB-75 CNS = system: SNB-75 CNS
SW-620 colon = system: SW-620 colon
HCT-116 colon = system: HCT-116 colon
HL-60(TB) leukemia = system: HL-60(TB) leukemia
OVCAR-4 ovarian = system: OVCAR-4 ovarian
HOP-92 NSCLC = system: HOP-92 NSCLC

Measured: TGI

C[C@]12CC[C@H]3[C@@H](CCC4=C[C@@H](N5CCCC5)CC[C@@]43C)[C@@H]1C/C(=C\c1ccncc1)[C@@H]2O
10.8 µM: 786-0 renal
26.5 µM: TK-10 renal
31 µM: KM12 colon
33.7 µM: NCI-H226 lung
28.5 µM: U251 CNS | RPMI-8226 leukemia | SN12C renal
18.3 µM: HOP-62 NSCLC
30.8 µM: PC-3 prostate
53.6 µM: OVCAR-5 ovarian
25.2 µM: SK-MEL-5 melanoma
49.6 µM: EKVX NSCLC
36.1 µM: HS 578T breast
29.9 µM: UACC-62 melanoma
42.2 µM: SNB-75 CNS
27.1 µM: MDA-MB-435
5.66 µM: M14 melanoma
41.8 µM: SF-268 CNS | HL-60(TB) leukemia
24.9 µM: MDA-N
20.7 µM: COLO 205 colon
18.7 µM: UACC-257 melanoma
64.6 µM: IGROV1 ovarian
26.2 µM: HCT-15 colon
19 µM: RXF 393 renal
24.1 µM: NCI-H522 lung
29.8 µM: MDA-MB-231 breast
40.6 µM: ACHN renal
65.8 µM: T-47D breast
24.2 µM: SK-MEL-28 melanoma
30.9 µM: SK-MEL-2 melanoma
29.1 µM: A549 NSCLC
17.6 µM: SF-295 CNS
26.1 µM: MCF7 breast
43.6 µM: SW-620 colon
63.5 µM: OVCAR-8 ovarian
27.8 µM: MALME-3M melanoma
34.2 µM: NCI-H23 lung
18.4 µM: UO-31 renal
18 µM: HCC-2998 colon
38.9 µM: BT-549 breast
31.2 µM: HOP-92 NSCLC
11 µM: HT29 colon
41.2 µM: OVCAR-3 ovarian
43.9 µM: NCI/ADR-RES ovarian
61.7 µM: SK-OV-3 ovarian
28.1 µM: SF-539 CNS
26.4 µM: NCI-H460 lung
21.4 µM: LOX IMVI melanoma
39.5 µM: DU-145 prostate
75.8 µM: OVCAR-4 ovarian
12.8 µM: SR leukemia
21.1 µM: HCT-116 colon
30.1 µM: SNB-19 CNS
> 100 µM: all other assays above

Cc1ccc(Nc2nc3ccccc3c(=O)n2N)cc1
> 100 µM: all assays above

Nc1nc2ccc(NCc3ccc(C(=O)NC(CCC(=O)O)C(=O)O)cc3)cc2c(=O)[nH]1 (configuration not stated)
39.9 µM: ACHN renal
87.5 µM: M14 melanoma
> 100 µM: all other assays above

CC1(c2ccccc2)CCN(C2CC2)CO1 (configuration not stated)
28.1 µM: NCI-H460 lung
35.4 µM: SF-268 CNS
36.2 µM: SW-620 colon
30.8 µM: HCC-2998 colon
35.7 µM: HT29 colon
44 µM: HS 578T breast
35.8 µM: UO-31 renal
30.1 µM: HCT-15 colon
85.2 µM: NCI-H23 lung
33.9 µM: OVCAR-4 ovarian
31 µM: M14 melanoma | MDA-N
39.9 µM: LOX IMVI melanoma
34.4 µM: MALME-3M melanoma
29.9 µM: 786-0 renal
30.4 µM: KM12 colon
33.3 µM: OVCAR-5 ovarian
36.5 µM: CAKI-1 renal
38.4 µM: MDA-MB-231 breast
40.2 µM: IGROV1 ovarian
36.6 µM: SN12C renal
32.3 µM: BT-549 breast
41.4 µM: EKVX NSCLC
45.1 µM: T-47D breast
31.7 µM: ACHN renal | OVCAR-3 ovarian
40.9 µM: HCT-116 colon
65.5 µM: SR leukemia
47.8 µM: UACC-257 melanoma
37.5 µM: SK-MEL-28 melanoma
32 µM: MCF7 breast | UACC-62 melanoma
26.7 µM: TK-10 renal
43.5 µM: MOLT-4 leukemia
69.3 µM: RXF 393 renal
46.6 µM: NCI/ADR-RES ovarian
39.8 µM: COLO 205 colon
not listed: SF-539 CNS | NCI-H522 lung | HOP-92 NSCLC
> 100 µM: all other assays above

COc1ccc([C@H]2CC(=O)C[C@H](c3ccc(OC)cc3OC)C23C(=O)c2ccccc2C3=O)c(OC)c1
> 100 µM: all assays above
